Source: patent US20130274127A1, “GENE EXPRESSION MARKERS FOR PREDICTION OF RESPONSE TO PHOSPHOINOSITIDE 3-KINASE INHIBITORS” (GENOMIC HEALTH, INC., priority 2012, published 2013)

Tests used:
Experiment in all cases: NCI-60 in vitro drug sensitivity testing (SRB)
Format in all cases: cell-based
DU-145 = conditions: Homo sapiens, DU-145, read-out: GDC-0941 GI50
Description: (§1) Cell lines used in this study were obtained from the National Cancer Institute Developmental Therapeutics program (NCI DTP) and were maintained in RPMI 1640 media (Invitrogen, Grand Island, N.Y.) containing 10% Fetal Bovine Serum (ATCC, Manassas, Va.). Cell lines were used within six months of receipt from the NCI DTP, abrogating the need for reauthentication.
(§2) 14, 2010 and Aug. 9, 2010.

PC-3 = conditions: Homo sapiens, PC-3, read-out: GDC-0941 GI50
Description: as §1, §2

CAKI-1 = conditions: Homo sapiens, CAKI-1, read-out: GDC-0941 GI50
Description: as §1, §2

HOP-62 = conditions: Homo sapiens, HOP-62, read-out: GDC-0941 GI50
Description: as §1, §2

A549/ATCC = conditions: Homo sapiens, read-out: GDC-0941 GI50
Description: as §1, §2

TK-10 = conditions: Homo sapiens, TK-10, read-out: GDC-0941 GI50
Description: as §1, §2

MDA-MB-435 = conditions: Homo sapiens, MDA-MB-435, read-out: GDC-0941 GI50
Description: as §1, §2

UO-31 = conditions: Homo sapiens, UO-31, read-out: GDC-0941 GI50
Description: as §1, §2

RPMI-8226 = conditions: Homo sapiens, RPMI-8226, read-out: GDC-0941 GI50
Description: as §1, §2

M14 = conditions: Homo sapiens, M14, read-out: GDC-0941 GI50
Description: as §1, §2

786-0 = conditions: Homo sapiens, 786-0, read-out: GDC-0941 GI50
Description: as §1, §2

NCI-H522 = conditions: Homo sapiens, NCI-H522, read-out: GDC-0941 GI50
Description: as §1, §2

UACC-257 = conditions: Homo sapiens, UACC-257, read-out: GDC-0941 GI50
Description: as §1, §2

SR = conditions: Homo sapiens, read-out: GDC-0941 GI50
Description: as §1, §2

OVCAR-3 = conditions: Homo sapiens, OVCAR-3, read-out: GDC-0941 GI50
Description: as §1, §2

NCI-H460 = conditions: Homo sapiens, NCI-H460, read-out: GDC-0941 GI50
Description: as §1, §2

NCI/ADR-RES = conditions: Homo sapiens, read-out: GDC-0941 GI50
Description: as §1, §2

SK-MEL-5 = conditions: Homo sapiens, SK-MEL-5, read-out: GDC-0941 GI50
Description: as §1, §2

SNB-19 = conditions: Homo sapiens, SNB-19, read-out: GDC-0941 GI50
Description: as §1, §2

HL-60(TB) = conditions: Homo sapiens, read-out: GDC-0941 GI50
Description: as §1, §2

HCC-2998 = conditions: Homo sapiens, read-out: GDC-0941 GI50
Description: as §1, §2

SW-620 = conditions: Homo sapiens, SW-620, read-out: GDC-0941 GI50
Description: as §1, §2

A498 = conditions: Homo sapiens, A498, read-out: GDC-0941 GI50
Description: as §1, §2

BT-549 = conditions: Homo sapiens, BT-549, read-out: GDC-0941 GI50
Description: as §1, §2

MOLT-4 = conditions: Homo sapiens, MOLT-4, read-out: GDC-0941 GI50
Description: as §1, §2

HCT-116 = conditions: Homo sapiens, HCT-116, read-out: GDC-0941 GI50
Description: as §1, §2

NCI-H322M = conditions: Homo sapiens, read-out: GDC-0941 GI50
Description: as §1, §2

SK-OV-3 = conditions: Homo sapiens, SK-OV-3, read-out: GDC-0941 GI50
Description: as §1, §2

HCT-15 = conditions: Homo sapiens, HCT-15, read-out: GDC-0941 GI50
Description: as §1, §2

OVCAR-5 = conditions: Homo sapiens, OVCAR-5, read-out: GDC-0941 GI50
Description: as §1, §2

HOP-92 = conditions: Homo sapiens, HOP-92, read-out: GDC-0941 GI50
Description: as §1, §2

Q: How did the GI50 (DU-145) turn out when `CS(=O)(=O)N1CCN(Cc2cc3nc(-c4cccc5[nH]ncc45)nc(N4CCOCC4)c3s2)CC1` [GDC-0941] was run?
A: 355 nM

Q: What about the GI50 (PC-3) of the same compound?
A: 138 nM

Q: What about the GI50 (CAKI-1) of the same compound?
A: 178 nM

Q: And the GI50 (HOP-62)?
A: 363 nM

Q: And the GI50 (A549/ATCC)?
A: 251 nM

Q: What about the GI50 (TK-10) of the same compound?
A: 550 nM

Q: What about the GI50 (MDA-MB-435) of the same compound?
A: 204 nM

Q: And the GI50 (UO-31)?
A: 78 nM

Q: What about the GI50 (RPMI-8226) of the same compound?
A: 3470 nM

Q: What about the GI50 (M14) of the same compound?
A: 871 nM

Q: What about the GI50 (786-0) of the same compound?
A: 295 nM

Q: And the GI50 (NCI-H522)?
A: 372 nM

Q: What about the GI50 (UACC-257) of the same compound?
A: 78 nM

Q: What about the GI50 (SR) of the same compound?
A: 1290 nM

Q: And the GI50 (OVCAR-3)?
A: 126 nM

Q: And the GI50 (NCI-H460)?
A: 204 nM

Q: What about the GI50 (NCI/ADR-RES) of the same compound?
A: 2040 nM

Q: And the GI50 (SK-MEL-5)?
A: 1290 nM

Q: What about the GI50 (SNB-19) of the same compound?
A: 1150 nM

Q: And the GI50 (HL-60(TB))?
A: 58 nM

Q: And the GI50 (HCC-2998)?
A: 1320 nM

Q: What about the GI50 (SW-620) of the same compound?
A: 832 nM

Q: What about the GI50 (A498) of the same compound?
A: 123 nM

Q: And the GI50 (BT-549)?
A: 32 nM

Q: What about the GI50 (MOLT-4) of the same compound?
A: 155 nM

Q: What about the GI50 (HCT-116) of the same compound?
A: 692 nM

Q: And the GI50 (NCI-H322M)?
A: 209 nM

Q: And the GI50 (SK-OV-3)?
A: 83 nM

Q: And the GI50 (HCT-15)?
A: 209 nM

Q: What about the GI50 (OVCAR-5) of the same compound?
A: 117 nM

Q: What about the GI50 (HOP-92) of the same compound?
A: 83 nM
